According to patent publication US5081112A, “Method for treating hyperlipidemia” (Otsuka Pharmaceutical Factory Inc., priority 1986, dated 1992):

Legend:
Acute toxicity test = type: in vivo, Wistar-strain male rats; conditions: in vivo; oral; rat
Text: (§1) Each of carboxamide compounds represented by the formula (1), which is the active ingredient contained in pharmaceutical composition according to the present invention, was suspended in 5%-CMC-Na aqueous solution and administered orally to Wistar-strain male rats of 7 week age (one test group consisting of 6 rats) so as to observe the acute toxicity of each of the carboxamide compounds.
(§2) Thus, LD50 value of Test compound No. 2 is considered to higher than […]. Thus, carboxamide compounds represented by the formula (1) according to the present invention can be said as quite safety compounds.

Wistar-strain male rats = experiment: Acute toxicity test; type: in vivo; conditions: 2 g/kg oral; rat
Text: as §1, §2

CCOP(=O)(Cc1ccc(C(=O)N(Cc2ccccc2)c2ccc(Cl)cc2)cc1)OCC [Test compound No. 2]
LD50 (Acute toxicity test): > 2000 mg/kg | lethal cases (Wistar-strain male rats): not any lathal case at all
